Laboratory results as given in patent US6022892A, “Bis-platinum complexes with polyamine ligands as antitumor agents” (Hoffman-La Roche Inc., priority 1998, dated 2000).

Experiments:
[1] = tested on: L1210/CDDP; test: cytotoxic effect in vitro on cisplatin resistant subline L1210/CDDP; format: cell-based, murine; conditions: after 72 hours from the drug exposure, resistant line
Experimental: (§1) The compounds of formula (I) were tested for their cytotoxic effect "in vitro" on various tumor cell lines, among which murine leukemia L1210, human ovarian carcinoma A2780 and the respective cisplatin resistant sublines L1210/CDDP and A2780/CDDP.
(§2) a) IC50 (concentration of the drug expressed as ([…] which causes a 50% inhibition of the cell growth) determined after 2 hours from the drug exposure.
b), c) IC50 determined after 72 hours from the drug exposure in the non resistant and in the resistant cell lines, receptively.

[2] = tested on: A2780; test: cytotoxic effect in vitro on human ovarian carcinoma A2780; format: cell-based; conditions: after 1 hour from the drug exposure
Experimental: as §1, §2
(§3) d), e) IC50 determined after 1 hour from the drug exposure in the non resistant and in the resistant cell lines, receptively.

[3] = tested on: A2780/CDDP; test: cytotoxic effect in vitro on cisplatin resistant subline A2780/CDDP; format: cell-based, human; conditions: after 1 hour from the drug exposure, resistant line
Experimental: as §1, §2, §3

[4] = tested on: L1210CDDP; test: in vivo antitumor test, L1210/CDDP tumor cells inoculated ip in mouse; conditions: ip 24, 120 and 216 hours after tumor inoculation
Experimental: In addition, the compounds of the invention were tested in an "in vivo" test in which L1210 and L1210/CDDP tumor cells are inoculated intraperitoneally (ip) in a mouse and the compound is administered ip 24, 120 and 216 hours after tumor inoculation.
% T/C=[(MST treated)/(MST control)]×100

| Molecule | L1210/CDDP IC50 72h [1] [µg/mL] | A2780 IC50 1h [2] [µg/mL] | A2780/CDDP IC50 1h [3] [µg/mL] | T/C % (mean survival time treated/control) ([4]; 6 mg/kg) [%] | T/C % (mean survival time treated/control) ([4]; 2 mg/kg) [%] |
| --- | --- | --- | --- | --- | --- |
| [Cl-].[Cl-].[Cl-].[NH2][Pt+]([NH2])([Cl])[NH]CCCC[NH2+]CCC[NH][Pt+]([NH2])([NH2])[Cl] [Example 14, [trans-(PtCl(NH3)2)2-(-spermidine]Cl3] | 0.03 | < 0.005 | 0.13 |  |  |
| N.N.[Cl][Pt][Cl] [cisplatin, reference compound] |  |  |  | 110 |  |
| [trans-(PtCl(NH3)2)2 (-spermine]Cl4 [Example 16] |  | < 0.005 |  |  | 172 |
| [trans-(PtCl(NH3)2)2 H2 N--(CH2)6 --NH2 ](NO3)2 [reference compound] | 0.1 |  |  |  |  |
